Columns and labels:
[1] = system: endometriosis; details: cited from earlier work
[2] = system: endometriotic-like foci; assay: Experimental model of endometriosis in the rat (size of engraftments); assay type: in vivo; details: for Mean ± SEM Post-treatment values (engraftment surface area): s.c., soluble TNF-RI 10 mg/kg, Antide 2 mg/kg; for Mean ± SEM Pre-treatment values (engraftment surface area): baseline at pre-treatment laparatomy
Method: Experimental model of endometriosis in the rat. To explore the effects of the recombinant soluble TNF-RI in endometriosis, a previously described experimental model (Jones, 1987) was used with minor modifications. Under Inoketam/Rompun anaesthesia, an autologous fragment of endometrial tissue (1 cm in length) was resected from the right uterine horn and placed in PBS at 37° C. The uterine segment was opened by a longitudinal incision, and a 5×5 mm section was transplanted, without removing the myometrium, onto the inner surface of the abdominal wall using non-absorbable silk suture at four comers.
Exploration of the study drugs effects in the experimental model of endometriosis. […] One further group of rats, not undergoing any surgical procedure, was kept as a normal control group. Three weeks after the induction of endometriosis, the animals underwent a second laparatomy (pre-treatment laparatomy) to evaluate the size and viability of the ectopic endometrial tissue. The surface area (length×width) was measured using a calliper and recorded. The animals showing viable engraftments were assigned to the designated treatment groups as reported in Table I, so that at the end of the experiment, six animals/group for the first sacrifice time-point and five animals/group for the second sacrifice time-point were obtained. The treatments were started after a 1-week recovery period. The control groups received saline alone; another group received three subcutaneous injections of 2 mg/kg Antide every 3 days with a regimen previously shown to suppress ovarian and hypothalamic activity (Sharpe et al., 1990). A further group received 10 mg/kg recombinant soluble TNF-RI, divided into two daily doses over a 1-week period.
(§1) At the designated sacrifice time-points (2 and 9 days after the last treatment i.e. 36 and 43 days after surgical engraftment), the animals were anaesthetised; blood samples were collected from abdominal aorta, sera were separated and stored at −20° C. until analyzed for estradiol-17β level determination. Spleens were excised for measurement of the Natural Killer (NK) activity. The surface area of endometriosis-like foci were measured at each sacrifice time-point in order to normalize data, the percent variation versus the pre-treatment laparatomy value was calculated by the formula: [formula]
where X0 is the size at time of pre-treatment laparatomy and X is the size at the time of sacrifice. The mean value of percent variation in each group was then computed.

[3] = Serum estradiol-17β determination by radioimmunoassay in rats with experimental endometriosis; assay type: in vivo, rat; details: second observation time-point (9 days after last treatment)
Method: as §1
Estradiol-17β determination. Serum estradiol-17β concentrations were determined using a commercially available kit to quantify estradiol in serum with no extraction step (DPC, Los Angeles, Calif., USA). Briefly, ^125I-labeled estradiol competes with estradiol in the serum sample for antibody sites. After incubation, separation of bound from free was achieved by decanting. The tube was then counted in a gamma counter (LKB-Pharmacia Wallak), the counts being inversely related to the amount of estradiol present in the serum sample. The quantity of estradiol in the samples was determined by comparing the counts to a calibration curve. […] Samples from the same experimental session were analyzed in a single immunoassay.

Row | Molecule | crude recurrence rates ([1]; after up to 4 years) | patients suffering from pain with improved symptoms ([1]; endometriosis patients) | patients abandoning therapy because of weight gain and androgenic side effects ([1]; human, in vivo) | size reduction of the endometriotic-like foci compared to the original dimension ([2]; 2 days after last treatment (first sacrifice time-point)) [%] | Mean ± SEM Post-treatment values (engraftment surface area) ([2]; 2 days after last treatment) [cm^2] | size reduction of the endometriotic-like foci compared to the original dimension ([2]; 9 days after last treatment (second sacrifice time-point)) [%] | Mean ± SEM Post-treatment values (engraftment surface area) ([2]; 9 days after last treatment) [cm^2] | Mean ± SEM Pre-treatment values (engraftment surface area) ([2]; group observed 2 days after last treatment) [cm^2] | Mean ± SEM Pre-treatment values (engraftment surface area) ([2]; group observed 9 days after last treatment) [cm^2] | serum estradiol-17β concentration compared to untreated controls [3]
1 | C#C[C@]1(O)CC[C@H]2[C@@H]3CCC4=Cc5oncc5C[C@]4(C)[C@H]3CC[C@@]21C [Danazol] | 40%-50% | 66-100% | up to 80% |  |  |  |  |  |  | 
2 | Antide |  |  |  | 94 | 0.08 ± 0.02 | 88 | 0.19 ± 0.09 | 1.43 ± 0.34 | 1.41 ± 0.32 | significant difference
